Test results: patent US4275248A, “Preparation of 2,4,6-triisopropylphenol” (UOP Inc., priority 1980, dated 1981)
Entries after “also recorded” stand apart in the source; their conditions may differ. Read-outs that look alike come from different tables or passages of the source.

What was measured:
[1] = Gum formation under accelerated storage conditions, ANSI/ASTM method D873-74, gasoline sample A
Method: (§1) The effectiveness of materials as antioxidants in liquid petroleum products was determined by measurement of the induction period prior to oxidation, ANSI/ASTM method D525-74, and by measurement of gum formation under accelerated storage conditions, ANSI/ASTM method D873-74. The liquid petroleum product was either a base washed riser-cracked gasoline from British Petroleum Co., Canada (sample A) or a base washed, blended full range gasoline from Union Oil (sample B). As a comparison, there is included an antioxidant of wide commercial utility which consists of 2,6-di-t-butylphenol (75%), 2,4,6-tri-t-butylphenol (15%) and 2,t-butylphenol (10%) and which we designate by the symbol E733.

[2] = Induction period prior to oxidation, ANSI/ASTM method D525-74, gasoline sample B; conditions: runs 4-7 (no additive: 80-105)
Method: as §1

[3] = Gum formation under accelerated storage conditions, ANSI/ASTM method D873-74, gasoline sample B; conditions: runs 4-7 (no additive: 320)
Method: as §1

[4] = Induction period prior to oxidation, ANSI/ASTM method D525-74, gasoline sample A
Method: as §1

[5] = Oxidative stability of gasoline / petroleum distillates, overall antioxidant effectiveness in words; conditions: for effectiveness in increasing the induction period: versus commercial product commonly used to stabilize gasoline
Excerpt: Among the products which may be prepared by this invention, the di- and tri-isopropylated hydroxy substituted aromatic compounds are effective antioxidants for stabilizing various petroleum distillates. Examples of the latter include home heating fuel, gasoline, diesel fuel, aviaton fuel, kerosene, and lubricating oils. […] One way of determining the stabilizing effect of additives is to compare the induction period to oxidation of a composton differing only in the nature of the additive present. […] The di- and tri-isopropylated phenols of the present invention may be used as antioxidants at concentrations from about 5 parts per million by weight to about 5% by weight, and preferably from about 5 to about 500 parts per million by weight when used in fuel oils.
as §1

[6] = 35 ppm, runs 4-7 (no additive: 180)
[7] = 50 ppm, runs 4-7 (no additive: 180)
[8] = 20 ppm, runs 4-7 (no additive: 125-130)
[9] = 35 ppm, runs 4-7 (no additive: 125-130)
[10] = 50 ppm, runs 4-7 (no additive: 125-130)

| antioxidant effectiveness for stabilizing petroleum distillates [5] | Structure (SMILES) | Accelerated Gum [1, 6] | Accelerated Gum [1, 7] | Induction Period ([2]; 20 ppm) | Induction Period ([2]; 35 ppm) | Induction Period ([2]; 50 ppm) | Accelerated Gum ([3]; 35 ppm) | Accelerated Gum ([3]; 50 ppm) | Induction Period [4, 8] | Induction Period [4, 9] | Induction Period [4, 10] | Accelerated Gum ([1]; 20 ppm, runs 1-3 (no additive: 45)) | Accelerated Gum ([1]; 40 ppm, runs 1-3 (no additive: 45)) | antioxidant effectiveness for stabilizing petroleum distillates ([5]; general statement in words) | effectiveness in increasing the induction period [5] | imparting oxidative stability to the gasolines tested ([5]; versus commercial standard, measured by increase in induction period and decrease in gum formation) | Induction Period ([4]; 20 ppm, runs 1-3 (no additive: 170)) | Induction Period ([4]; 40 ppm, runs 1-3 (no additive: 170)) | imparting oxidative stability to the gasolines tested [5] | Accelerated Gum ([3]; 20 ppm) |
| --- | --- | --- | --- | --- | --- | --- | --- | --- | --- | --- | --- | --- | --- | --- | --- | --- | --- | --- | --- | --- |
|  | CC(C)c1cccc(C(C)C)c1O [2,6-diisopropylphenol] | 35 mg/100 ml | 9 mg/100 ml | 195 min | 250 min | 310 min | 4.5 mg/100 ml | 3.5 mg/100 ml | 200 min | 240 min | 305 min |  |  |  |  |  |  |  |  |  |
|  | Cc1cc(C(C)C)c(O)c(C(C)C)c1 [2,6-diisopropyl-4-methylphenol] |  |  |  |  |  |  |  |  |  |  | 5 mg/100 ml | 3 mg/100 ml | particularly effective; also recorded: particularly desirable antioxidant properties | substantially more effective in increasing the induction period | substantially more effective than an accepted commercial standard | 340 min | 475 min |  |  |
| particularly effective | CC(C)c1cc(C(C)C)c(O)c(C(C)C)c1 [2,4,6-triisopropylphenol] | 7-8 mg/100 ml | 7-8 mg/100 ml | 270 min | 350 min | 420 min | 2.5 mg/100 ml | 2.5 mg/100 ml | 245 min | 310 min | 375 min |  |  |  | substantially more effective in increasing the induction period |  |  |  | substantially more effective than an accepted commercial standard | 13 mg/100 ml |
